Values joined by “and” are separate entries in the source; they are usually repeats but may differ in a detail not shown here. Equal entries are not always repeated. Where two headings read alike, the source gives them in different places.
Experiments:
Listeria monocytogenes [1] = format: cell-based
[2] = test system: background microbial load (LB load); assay: Log reduction analysis of background bacteria on inoculated Romaine lettuce; format: cell-based; conditions: after each dip, in log units, No treatment 4.81
Listeria monocytogenes [3] = assay: Suspension tests, Listeria; format: cell-based; set-up: key to Average log reduction: * indicates a sample in which no bacteria grew, so no fold reduction may be calculated; conditions: for Average log reduction: vs water control
Non-selective mix = assay: Suspension tests, non-selective agar; format: cell-based, E. coli O157:H7, sv. Typhimurium, and Listeria monocytogenes; set-up: key to Average log reduction: * indicates a sample in which no bacteria grew, so no fold reduction may be calculated; conditions: for Average log reduction: vs water control
Salmonella = assay: Suspension tests, Salmonella; format: cell-based, sv. Typhimurium; set-up: key to Average log reduction: * indicates a sample in which no bacteria grew, so no fold reduction may be calculated; conditions: for Average log reduction: vs water control
E. coli O157:H7 = assay: Suspension tests, E. coli; format: cell-based; set-up: key to Average log reduction: * indicates a sample in which no bacteria grew, so no fold reduction may be calculated; conditions: for Average log reduction: vs water control
[4] = test system: background microflora in wash water; assay: Reduction of bacteria from wash water using ozone; format: cell-based
Source text: Water containing high levels of background microflora was generated by dipping 200 g of lettuce in 2 L of water for 20 seconds. This lettuce was discarded and another 200 g of lettuce was dipped in the same water for 20 seconds. This was repeated for a total of 10 dips (referred to as Control in Table 34 below). Water with dissolved Ozone was then generated using a ClearWater Tech MSW245 Mobile Ozone Generator (San Luis Obispo, Calif.). The control microflora containing water was then mixed with this ‘Ozonated water’ at various mix levels ranging from 10 to 60% of the ozonated water with the control microflora containing water. First, 10% ozonated water was blended with 90% microflora containing water and after 20 seconds, 100 ml of water was removed into a sterile water sample bottle. This protocol was repeated in triplicate, as well as testing 20%, 30%, 40%, 50%, and 60% blends of ozonated water combined with the microflora containing water. In addition, 200 g of lettuce was added to the ozonated solution for 20 seconds and 100 ml of water was then collected in a sterile water sample bottle. This was also repeated in triplicate. The samples were serially diluted using PB as the diluent and plated on Total Plate Count agar. The plates were incubated for 48 hours at 30° C. for enumeration of the bacteria present following treatment.
The theoretical dilution reduction in Table 34 was calculated based on the number of cells that would be present if they were diluted in water or buffer (i.e. not a solution that would cause cell death or injury).

[5] = test system: microbial load (Total Aerobic Plate Count) of raw, unwashed leafy vegetables; format: cell-based
[6] = test system: microbial load (APC) of chopped Romaine lettuce; format: cell-based

## [O][Cl+][O-] [ClO2 dip, chlorine dioxide]
Listeria monocytogenes [1]
  Listeria Load (%): 2.87% and 4.29%
[2]; Treatment 1 (ClO2, Cl2, PAA)
  Avg. Bacterial Load: 1.56
[2]; Treatment 2 (ClO2, PAA, Cl2)
  Avg. Bacterial Load: 2.41
Listeria monocytogenes [3]; 30 seconds at 4° C.
  % bacteria killed: 100%
  Average log reduction: *
Listeria monocytogenes [3]; 30 seconds at 4° C., Water 4.96 × 10^5
  Average (bacterial load): 0.00
Listeria monocytogenes [3]; 30 seconds at 15° C.
  % bacteria killed: 100%
  Average log reduction: *
Listeria monocytogenes [3]; 30 seconds at 15° C., Water 2.24 × 10^6
  Average (bacterial load): 0.00
Listeria monocytogenes [3]; 30 seconds at 40° C.
  % bacteria killed: 99.9999%
  Average log reduction: 6.06
Listeria monocytogenes [3]; 30 seconds at 40° C., Water 2.32 × 10^6
  Average (bacterial load): 2.00 × 10^0
Listeria monocytogenes [3]; 90 seconds at 4° C.
  % bacteria killed: 100%
  Average log reduction: *
Listeria monocytogenes [3]; 90 seconds at 4° C., Water 2.06 × 10^5
  Average (bacterial load): 0.00
Listeria monocytogenes [3]; 90 seconds at 15° C.
  % bacteria killed: 100%
  Average log reduction: *
Listeria monocytogenes [3]; 90 seconds at 15° C., Water 7.14 × 10^4
  Average (bacterial load): 0.00
Listeria monocytogenes [3]; 90 seconds at 40° C.
  % bacteria killed: 96.080%
  Average log reduction: 1.41
Listeria monocytogenes [3]; 90 seconds at 40° C., Water 2.50 × 10^6
  Average (bacterial load): 9.80 × 10^4
Non-selective mix
  % bacteria killed: 100.000%
Non-selective mix; 30 seconds at 4° C., Water 1.00 × 10^7
  Average (bacterial load): 0.00
Non-selective mix; 30 seconds at 4° C., listed as 10 ppm chlorine dioxide
  % bacteria killed: 100%
Non-selective mix; 30 seconds at 4° C., listed as Chlorine dioxide (10 ppm)
  % bacteria killed: 100%
Non-selective mix; 30 seconds at 4° C.
  Average log reduction: *
Non-selective mix; 30 seconds at 15° C., Water 8.46 × 10^6
  Average (bacterial load): 0.00
Non-selective mix; 30 seconds at 15° C., listed as 10 ppm chlorine dioxide
  % bacteria killed: 100%
Non-selective mix; 30 seconds at 15° C., listed as Chlorine dioxide (10 ppm)
  % bacteria killed: 100%
Non-selective mix; 30 seconds at 15° C.
  Average log reduction: *
Non-selective mix; 30 seconds at 40° C., Water 8.30 × 10^6
  Average (bacterial load): 1.00 × 10^2
Non-selective mix; 30 seconds at 40° C., listed as 10 ppm chlorine dioxide
  % bacteria killed: 99.9988%
Non-selective mix; 30 seconds at 40° C., listed as Chlorine dioxide (10 ppm)
  % bacteria killed: 99.9988%
Non-selective mix; 30 seconds at 40° C.
  Average log reduction: 4.92
Non-selective mix; 90 seconds at 4° C., Water 6.22 × 10^6
  Average (bacterial load): 2.00 × 10^0
Non-selective mix; 90 seconds at 4° C., listed as 10 ppm chlorine dioxide
  % bacteria killed: 100%
Non-selective mix; 90 seconds at 4° C., listed as Chlorine dioxide (10 ppm)
  % bacteria killed: 100%
Non-selective mix; 90 seconds at 4° C.
  Average log reduction: 6.49
Non-selective mix; 90 seconds at 15° C., Water 1.21 × 10^7
  Average (bacterial load): 2.00 × 10^1
Non-selective mix; 90 seconds at 15° C., listed as 10 ppm chlorine dioxide
  % bacteria killed: 99.9998%
Non-selective mix; 90 seconds at 15° C., listed as Chlorine dioxide (10 ppm)
  % bacteria killed: 99.9998%
Non-selective mix; 90 seconds at 15° C.
  Average log reduction: 5.78
Non-selective mix; 90 seconds at 40° C., Water 9.76 × 10^6
  Average (bacterial load): 7.20 × 10^4
Non-selective mix; 90 seconds at 40° C., listed as 10 ppm chlorine dioxide
  % bacteria killed: 99.2623%
Non-selective mix; 90 seconds at 40° C., listed as Chlorine dioxide (10 ppm)
  % bacteria killed: 99.2623%
Non-selective mix; 90 seconds at 40° C.
  Average log reduction: 2.13
Salmonella; 30 seconds at 4° C.
  % bacteria killed: 100%
  Average log reduction: *
Salmonella; 30 seconds at 4° C., Water 5.32 × 10^6
  Average (bacterial load): 0.00
Salmonella; 30 seconds at 15° C.
  % bacteria killed: 100%
  Average log reduction: *
Salmonella; 30 seconds at 15° C., Water 2.70 × 10^6
  Average (bacterial load): 0.00
Salmonella; 30 seconds at 40° C.
  % bacteria killed: 99.9995%
  Average log reduction: 5.30
Salmonella; 30 seconds at 40° C., Water 4.36 × 10^6
  Average (bacterial load): 2.20 × 10^1
Salmonella; 90 seconds at 4° C.
  % bacteria killed: 100%
  Average log reduction: *
Salmonella; 90 seconds at 4° C., Water 1.57 × 10^6
  Average (bacterial load): 0.00
Salmonella; 90 seconds at 15° C.
  % bacteria killed: 100%
  Average log reduction: *
Salmonella; 90 seconds at 15° C., Water 4.54 × 10^6
  Average (bacterial load): 0.00
Salmonella; 90 seconds at 40° C.
  % bacteria killed: 99.4879%
  Average log reduction: 2.29
Salmonella; 90 seconds at 40° C., Water 7.42 × 10^6
  Average (bacterial load): 3.80 × 10^4
E. coli O157:H7; 30 seconds at 4° C.
  % bacteria killed: 100%
  Average log reduction: *
E. coli O157:H7; 30 seconds at 4° C., Water 5.72 × 10^6
  Average (bacterial load): 0.00
E. coli O157:H7; 30 seconds at 15° C.
  % bacteria killed: 100%
  Average log reduction: *
E. coli O157:H7; 30 seconds at 15° C., Water 5.96 × 10^6
  Average (bacterial load): 0.00
E. coli O157:H7; 30 seconds at 40° C.
  % bacteria killed: 99.9993%
  Average log reduction: 5.17
E. coli O157:H7; 30 seconds at 40° C., Water 3.22 × 10^6
  Average (bacterial load): 2.20 × 10^1
E. coli O157:H7; 90 seconds at 4° C.
  % bacteria killed: 100%
  Average log reduction: *
E. coli O157:H7; 90 seconds at 4° C., Water 3.96 × 10^6
  Average (bacterial load): 0.00
E. coli O157:H7; 90 seconds at 15° C.
  % bacteria killed: 100%
  Average log reduction: *
E. coli O157:H7; 90 seconds at 15° C., Water 5.74 × 10^6
  Average (bacterial load): 0.00
E. coli O157:H7; 90 seconds at 40° C.
  % bacteria killed: 99.1083%
  Average log reduction: 2.05
E. coli O157:H7; 90 seconds at 40° C., Water 3.14 × 10^6
  Average (bacterial load): 2.80 × 10^4

## O=[O+][O-] [ozone solution, ozone]
[4]; lettuce 20 sec in ozone solution, initial ozone 2.2 ppm, 20 sec in water 19266
  Avg. CFU/ml: 6900 CFU/ml
[4]; ozone solution (initial 1.8 ppm) mixed with microflora containing water, Control after 10 dips in water 300000, listed as 10% ozone solution, After mixing 10% ozone solution
  Avg. CFU/ml: 300000 CFU/ml
[4]; ozone solution (initial 1.8 ppm) mixed with microflora containing water, Control after 10 dips in water 300000, listed as 20% ozone solution, After mixing 20% ozone solution
  Avg. CFU/ml: 185333 CFU/ml
[4]; ozone solution (initial 1.8 ppm) mixed with microflora containing water, Control after 10 dips in water 300000, listed as 30% ozone solution, After mixing 30% ozone solution
  Avg. CFU/ml: 174667 CFU/ml
[4]; ozone solution (initial 1.8 ppm) mixed with microflora containing water, Control after 10 dips in water 300000, listed as 40% ozone solution, After mixing 40% ozone solution
  Avg. CFU/ml: 121667 CFU/ml
[4]; ozone solution (initial 1.8 ppm) mixed with microflora containing water, Control after 10 dips in water 300000, listed as 50% ozone solution, After mixing 50% ozone solution
  Avg. CFU/ml: 87667 CFU/ml
[4]; ozone solution (initial 1.8 ppm) mixed with microflora containing water, Control after 10 dips in water 300000, listed as 60% ozone solution, After mixing 60% ozone solution
  Avg. CFU/ml: 70333 CFU/ml

## OO [Treatment H2O2, hydrogen peroxide]
[5]
  APC (CFU/g): 5,800 CFU/g

## CC(=O)OO [PAA, peroxyacetic acid]
[6]
  log unit reduction in microbial load after each individual step: 2.4 log unit

Source: patent publication US10993448B2, “Method for sanitizing fresh produce” (Dole Fresh Vegetables, Inc., priority 2014, dated 2021)
